Laboratory results as given in ChEMBL document CHEMBL5154700, “Discovery of Gut-Restricted Small-Molecule Inhibitors of Intestinal Sodium-Dependent Phosphate Transport Protein 2b (NaPi2b) for the Treatment of Hyperphosphatemia” (J Med Chem, 2022).
pIC50: −log10 of the molar value. In brackets after ≈: the same amount, converted by molar mass.

Tests used:
[1] = biological target: T1, Sodium-dependent phosphate transport protein 2B (Homo sapiens, UniProt O95436); assay: Inhibition of human NaPi2b expressed in KJMGER8 cells assessed as reduction in H2[33P]O4 uptake incubated for 60 mins by TopCount scintillation counting method; assay type: cell-based
T1 sequence (O95436 whole entry): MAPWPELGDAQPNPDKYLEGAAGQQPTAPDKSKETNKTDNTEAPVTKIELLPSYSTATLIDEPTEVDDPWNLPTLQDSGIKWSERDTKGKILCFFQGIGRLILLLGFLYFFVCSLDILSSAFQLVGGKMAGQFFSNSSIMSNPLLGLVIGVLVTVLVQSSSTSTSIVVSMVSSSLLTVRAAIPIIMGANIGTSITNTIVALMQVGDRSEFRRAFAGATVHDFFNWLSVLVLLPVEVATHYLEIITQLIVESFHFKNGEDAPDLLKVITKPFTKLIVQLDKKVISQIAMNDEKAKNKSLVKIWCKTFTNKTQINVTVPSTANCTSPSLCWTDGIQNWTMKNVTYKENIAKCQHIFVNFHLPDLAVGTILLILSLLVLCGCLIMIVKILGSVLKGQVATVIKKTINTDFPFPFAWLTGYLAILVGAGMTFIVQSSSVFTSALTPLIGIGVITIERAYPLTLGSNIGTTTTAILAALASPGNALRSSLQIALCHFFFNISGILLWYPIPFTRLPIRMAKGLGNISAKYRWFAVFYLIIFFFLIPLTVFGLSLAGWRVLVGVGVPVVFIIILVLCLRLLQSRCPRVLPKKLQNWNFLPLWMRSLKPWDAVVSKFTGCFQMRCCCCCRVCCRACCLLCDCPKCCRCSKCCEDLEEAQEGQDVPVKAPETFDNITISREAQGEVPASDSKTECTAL

[2] = Ratio of drug level in lung to plasma in CRL:CD(SD) rat at 30 mg/kg, po measured after 7 hrs by LC-MS/MS; assay type: ADME, organism-based; details: lung and plasma
[3] = Solubility of compound in phosphate buffer at pH 7.4; assay type: physicochemical
[4] = Passive permeability of the compound across apical to basolateral at 100 uM incubated for 5 hrs by PAMPA assay; assay type: ADME; details: read-out: permeability
[5] = Drug concentration in CRL:CD(SD) rat plasma at 30 mg/kg, po measured after 6 hrs by LC-MS/MS analysis; assay type: ADME, organism-based
[6] = Drug concentration in CRL:CD(SD) rat lung at 30 mg/kg, po measured after 6 hrs by LC-MS/MS analysis; assay type: ADME, organism-based; details: read-out: Ct
[7] = AUC (0 to t) in CRL:CD(SD) rat at 10 mg/kg, po by LC-MS/MS analysis; assay type: ADME, organism-based; parameters: dose 10 mg/kg, route po; details: in vivo
[8] = Oral bioavailability in CRL:CD(SD) rat at 10 mg/kg by LC-MS/MS analysis; assay type: ADME, organism-based; details: in vivo
[9] = Cmax in CRL:CD(SD) rat at 10 mg/kg, po by LC-MS/MS analysis; assay type: ADME, organism-based; parameters: dose 10 mg/kg, route po; details: in vivo
[10] = Drug concentration in CRL:CD(SD) rat plasma at 30 mg/kg, po measured after 7 hrs by LC-MS/MS analysis; assay type: ADME, organism-based
[11] = Oral bioavailability in CRL:CD(SD) rat at 30 mg/kg measured after 7 hrs by LC-MS/MS analysis; assay type: ADME, organism-based; details: in vivo
[12] = AUC (0 to t) in CRL:CD(SD) rat at 30 mg/kg, po measured after 7 hrs by LC-MS/MS analysis; assay type: ADME, organism-based; parameters: time 7 hrs, dose 30 mg/kg, route po; details: in vivo
[13] = Mean residence time in CRL:CD(SD) rat at 30 mg/kg, po measured after 7 hrs by LC-MS/MS analysis; assay type: ADME, organism-based; details: in vivo
[14] = Half life in CRL:CD(SD) rat at 30 mg/kg, po measured after 7 hrs by LC-MS/MS analysis; assay type: ADME, organism-based; details: in vivo
[15] = Cmax in CRL:CD(SD) rat at 30 mg/kg, po measured after 7 hrs by LC-MS/MS analysis; assay type: ADME, organism-based; parameters: dose 30 mg/kg, time 7 hrs, route po; details: in vivo
[16] = AUC(0 to infinity) in CRL:CD(SD) rat at 30 mg/kg, po measured after 7 hrs by LC-MS/MS analysis; assay type: ADME, organism-based; parameters: dose 30 mg/kg, time 7 hrs, route po; details: in vivo
[17] = Inhibition of phosphate uptake in CRL:CD(SD) rat small intestine in at 0.1 mg treated through intrajejunal after 30 mins by In-situ closed-loop method; details: in vivo, other, 0.5 h
[18] = Drug concentration in CRL:CD(SD) rat lung at 30 mg/kg, po measured after 7 hrs by LC-MS/MS analysis; assay type: ADME, organism-based; details: read-out: Ct

CC1(C)CCc2c(sc(NC(=O)c3cccc(OCCOCCOCCOC[C@H](O)CN(CCO)CCO)c3)c2C(=O)N/N=C/c2ccc(Cl)c(C(F)(F)F)c2)C1
pIC50 [1]: 7.08
Kp at 7 h [2]: 44
solubility [3]: 76 µM (≈ 64.1 µg/mL)

CCN(CC)C[C@@H](O)COCCOCCOCCOc1cccc(C(=O)Nc2sc3c(c2C(=O)N/N=C/c2ccc(Cl)c(C(F)(F)F)c2)CCC(C)(C)C3)c1
Kp at 7 h [2]: 428

CCN(CC)CCOCCOCCOc1cccc(C(=O)Nc2sc3c(c2C(=O)N/N=C/c2ccc(Cl)c(C(F)(F)F)c2)CCN(C2CC2)C3)c1
pIC50 [1]: 6.50
Papp at 5 h, 100 µM [4]: 0.23 ×10⁻⁶ cm/s
solubility [3]: 82 µM (≈ 61.5 µg/mL)

O=C(Nc1sc2c(c1C(=O)N/N=C/c1ccc(Cl)c(C(F)(F)F)c1)CCCC2)c1cccc(CN2CCC(O)CC2)c1
pIC50 [1]: 7.06
solubility [3]: 0.1 µM (≈ 0.0619 µg/mL)

CCN(CC)CCCN(C)Cc1cccc(C(=O)Nc2sc3c(c2C(=O)N/N=C/c2ccc(Cl)c(C(F)(F)F)c2)CCN(C2CC2)C3)c1
concentration at 6 h [5]: 1.86 ng/mL
concentration at 6 h [6]: 6350 ng/g
AUC(0-t) [7]: 10.4 ng·h/mL
bioavailability [8]: 0.96%
Cmax [9]: 3.59 ng/mL

CCN(CC)CCOCCOCCOc1cccc(C(=O)Nc2sc3c(c2C(=O)N/N=C/c2ccc(Cl)c(C(F)(F)F)c2)CCC(C)(C)C3)c1
pIC50 [1]: 7.40
Papp at 5 h, 100 µM [4]: < 0.025 ×10⁻⁶ cm/s
Kp at 7 h [2]: 130
solubility [3]: 55 µM (≈ 40.6 µg/mL)

COCCN(CCOCCOCCOCCOCCOCCOCc1cccc(C(=O)Nc2sc3c(c2C(=O)N/N=C/c2ccc(Cl)c(C(F)(F)F)c2)CCC(C)(C)C3)c1)CC(=O)O
concentration at 7 h [10]: < 0.3 ng/mL
bioavailability [11]: 0.1%
AUC(0-t) at 7 h [12]: 0.665 ng·h/mL
MRT [13]: 5.25 h
pIC50 [1]: 7.19
half-life [14]: 3.53 h
Cmax [15]: 0.444 ng/mL
Papp at 5 h, 100 µM [4]: < 0.025 ×10⁻⁶ cm/s
solubility [3]: 122 µM (≈ 115 µg/mL)
AUC(0-inf) [16]: 2.62 ng·h/mL
inhibition (INH) [17]: 17%
concentration at 7 h [18]: < 1.5 ng/g
